We go through 26 molecules from patent US8053553B2, “Targeting host proteinases as a therapeutic strategy against viral and bacterial pathogens” (Socpra Sciences Sante Et Humaines, priority 2007, dated 2011).

Non-standard residues stand in square brackets, D forms with d. Residues, ends and D or L forms follow the SMILES beside them. Sar = CNCC(=O)O Some results are limits rather than exact numbers.

This assay has as its target T1, furin (Homo sapiens, UniProt P09958).
T1 construct: made in house; host or cells: Drosophila S2 cells (Invitrogen expression system)
Kind of assay: biochemical. Particulars: furin, Pyr-RTKR-AMC substrate; alanine scanning mutagenesis of the H5 furin cleavage sequence (Table 2); read-out: Ki.

T1 sequence (P09958 108-794 limits assumed): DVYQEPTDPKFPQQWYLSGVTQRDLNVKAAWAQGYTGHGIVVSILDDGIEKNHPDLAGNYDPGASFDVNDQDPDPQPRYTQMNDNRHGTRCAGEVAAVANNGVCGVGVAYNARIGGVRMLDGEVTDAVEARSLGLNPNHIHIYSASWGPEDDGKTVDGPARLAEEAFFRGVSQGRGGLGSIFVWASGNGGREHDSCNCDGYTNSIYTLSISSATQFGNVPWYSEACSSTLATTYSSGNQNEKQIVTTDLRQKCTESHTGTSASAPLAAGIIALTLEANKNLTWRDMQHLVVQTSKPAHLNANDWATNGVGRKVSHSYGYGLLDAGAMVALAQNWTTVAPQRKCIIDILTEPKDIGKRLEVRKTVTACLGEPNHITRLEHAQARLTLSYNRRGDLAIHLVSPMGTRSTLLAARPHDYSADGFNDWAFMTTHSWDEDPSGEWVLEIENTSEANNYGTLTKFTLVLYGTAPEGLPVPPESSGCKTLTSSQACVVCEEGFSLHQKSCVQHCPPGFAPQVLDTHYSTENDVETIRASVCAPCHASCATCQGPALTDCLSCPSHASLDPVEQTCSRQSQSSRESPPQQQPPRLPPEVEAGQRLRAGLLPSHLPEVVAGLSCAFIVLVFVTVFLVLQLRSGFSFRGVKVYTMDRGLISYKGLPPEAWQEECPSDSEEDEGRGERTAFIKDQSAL

As to `CC(C)[C@H](NC(=O)[C@H](CCCNC(=N)N)NC(=O)[C@H](CCCCN)NC(=O)[C@H](CCCCN)NC(=O)[C@H](CCCNC(=N)N)NC(=O)[C@H](CCCNC(=N)N)NC(=O)[C@H](C)NC(=O)[C@H](C)NC(=O)[C@H](CCCNC(=N)N)NC(=O)[C@@H]1CCCN1C(=O)[C@@H](N)[C@@H](C)O)C(N)=O` (H-TPRAARRKKRV-NH2), the Ki was > 100 nM. Under `C[C@H](NC(=O)[C@H](C)NC(=O)[C@H](CCCNC(=N)N)NC(=O)[C@@H]1CCCN1C(=O)[C@@H](N)[C@@H](C)O)C(=O)N[C@@H](CCCNC(=N)N)C(=O)N[C@@H](CCCNC(=N)N)C(=O)N[C@@H](CCCCN)C(=O)N[C@@H](CCCCN)C(=O)N[C@@H](CCCNC(=N)N)C(=O)N(C)CC(N)=O` (H-TPRAARRKKR[Sar]-NH2) stands > 100 nM. As for `C[C@H](NC(=O)[C@H](C)NC(=O)[C@H](CCC(=O)O)NC(=O)[C@H](CCCNC(=N)N)NC(=O)[C@@H]1CCCN1C(=O)[C@@H](N)[C@@H](C)O)C(=O)N[C@@H](C)C(=O)N[C@@H](CCCCN)C(=O)N[C@@H](CCCCN)C(=O)N[C@@H](CCCNC(=N)N)C(N)=O` (H-TPREAAAKKR-NH2), the figure is > 100 nM; as for `C[C@H](NC(=O)[C@H](C)NC(=O)[C@H](CCC(=O)O)NC(=O)[C@H](CCCNC(=N)N)NC(=O)[C@@H]1CCCN1C(=O)[C@@H](N)[C@@H](C)O)C(=O)N[C@@H](C)C(=O)N[C@@H](CCCCN)C(=O)N[C@@H](CCCCN)C(=O)N[C@@H](CCCNC(=N)N)C(=O)NCC(N)=O` (H-TPREAAAKKRG-NH2), > 100 nM; as for `CC(C)[C@H](NC(=O)[C@H](CCCNC(=N)N)NC(=O)[C@H](CCCCN)NC(=O)[C@H](CCCCN)NC(=O)[C@H](C)NC(=O)[C@H](C)NC(=O)[C@H](C)NC(=O)[C@H](CCC(=O)O)NC(=O)[C@H](CCCNC(=N)N)NC(=O)[C@@H]1CCCN1C(=O)[C@@H](N)[C@@H](C)O)C(N)=O` (H-TPREAAAKKRV-NH2), > 100 nM. Under `C[C@H](NC(=O)[C@H](C)NC(=O)[C@H](CCC(=O)O)NC(=O)[C@H](CCCNC(=N)N)NC(=O)[C@@H]1CCCN1C(=O)[C@@H](N)[C@@H](C)O)C(=O)N[C@@H](C)C(=O)N[C@@H](CCCCN)C(=O)N[C@@H](CCCCN)C(=O)N[C@@H](CCCNC(=N)N)C(=O)N(C)CC(N)=O` (H-TPREAAAKKR[Sar]-NH2) stands > 100 nM. For the molecule `C[C@H](NC(=O)[C@H](C)NC(=O)[C@H](CCC(=O)O)NC(=O)[C@H](CCCNC(=N)N)NC(=O)[C@@H]1CCCN1C(=O)[C@@H](N)[C@@H](C)O)C(=O)N[C@@H](CCCNC(=N)N)C(=O)N[C@@H](CCCCN)C(=O)N[C@@H](CCCCN)C(=O)N[C@@H](CCCNC(=N)N)C(N)=O` (H-TPREAARKKR-NH2), the inhibition constant Ki was > 100 nM. As to `C[C@H](NC(=O)[C@H](C)NC(=O)[C@H](CCC(=O)O)NC(=O)[C@H](CCCNC(=N)N)NC(=O)[C@@H]1CCCN1C(=O)[C@@H](N)[C@@H](C)O)C(=O)N[C@@H](CCCNC(=N)N)C(=O)N[C@@H](CCCCN)C(=O)N[C@@H](CCCCN)C(=O)N[C@@H](CCCNC(=N)N)C(=O)NCC(N)=O` (H-TPREAARKKRG-NH2), the inhibition constant (Ki) was > 100 nM. As for `CC(C)[C@H](NC(=O)[C@H](CCCNC(=N)N)NC(=O)[C@H](CCCCN)NC(=O)[C@H](CCCCN)NC(=O)[C@H](CCCNC(=N)N)NC(=O)[C@H](C)NC(=O)[C@H](C)NC(=O)[C@H](CCC(=O)O)NC(=O)[C@H](CCCNC(=N)N)NC(=O)[C@@H]1CCCN1C(=O)[C@@H](N)[C@@H](C)O)C(N)=O` (H-TPREAARKKRV-NH2), the figure is > 100 nM; as for `C[C@H](NC(=O)[C@H](C)NC(=O)[C@H](CCC(=O)O)NC(=O)[C@H](CCCNC(=N)N)NC(=O)[C@@H]1CCCN1C(=O)[C@@H](N)[C@@H](C)O)C(=O)N[C@@H](CCCNC(=N)N)C(=O)N[C@@H](CCCCN)C(=O)N[C@@H](CCCCN)C(=O)N[C@@H](CCCNC(=N)N)C(=O)N(C)CC(N)=O` (H-TPREAARKKR[Sar]-NH2), > 100 nM; as for `C[C@H](NC(=O)[C@H](CCC(=O)O)NC(=O)[C@H](CCCNC(=N)N)NC(=O)[C@@H]1CCCN1C(=O)[C@@H](N)[C@@H](C)O)C(=O)N[C@@H](CCCNC(=N)N)C(=O)N[C@@H](CCCNC(=N)N)C(=O)N[C@@H](CCCCN)C(=O)N[C@@H](CCCCN)C(=O)N[C@@H](CCCNC(=N)N)C(N)=O` (H-TPREARRKKR-NH2), > 100 nM. Under `CC(C)[C@H](NC(=O)[C@H](CCCNC(=N)N)NC(=O)[C@H](CCCCN)NC(=O)[C@H](CCCCN)NC(=O)[C@H](CCCNC(=N)N)NC(=O)[C@H](CCCNC(=N)N)NC(=O)[C@H](C)NC(=O)[C@H](CCC(=O)O)NC(=O)[C@H](CCCNC(=N)N)NC(=O)[C@@H]1CCCN1C(=O)[C@@H](N)[C@@H](C)O)C(N)=O` (H-TPREARRKKRV-NH2) stands > 100 nM; under `C[C@H](NC(=O)[C@H](CCC(=O)O)NC(=O)[C@H](CCCNC(=N)N)NC(=O)[C@@H]1CCCN1C(=O)[C@@H](N)[C@@H](C)O)C(=O)N[C@@H](CCCNC(=N)N)C(=O)N[C@@H](CCCNC(=N)N)C(=O)N[C@@H](CCCCN)C(=O)N[C@@H](CCCCN)C(=O)N[C@@H](CCCNC(=N)N)C(=O)N(C)CC(N)=O` (H-TPREARRKKR[Sar]-NH2), > 100 nM; under `C[C@H](NC(=O)[C@H](C)NC(=O)[C@H](CCCNC(=N)N)NC(=O)[C@H](CCC(=O)O)NC(=O)[C@H](CCCNC(=N)N)NC(=O)[C@@H]1CCCN1C(=O)[C@@H](N)[C@@H](C)O)C(=O)N[C@@H](CCCCN)C(=O)N[C@@H](CCCCN)C(=O)N[C@@H](CCCNC(=N)N)C(N)=O` (H-TPRERAAKKR-NH2), > 100 nM. Take `C[C@H](NC(=O)[C@H](C)NC(=O)[C@H](CCCNC(=N)N)NC(=O)[C@H](CCC(=O)O)NC(=O)[C@H](CCCNC(=N)N)NC(=O)[C@@H]1CCCN1C(=O)[C@@H](N)[C@@H](C)O)C(=O)N[C@@H](CCCCN)C(=O)N[C@@H](CCCCN)C(=O)N[C@@H](CCCNC(=N)N)C(=O)NCC(N)=O` (H-TPRERAAKKRG-NH2): the Ki was > 100 nM. Turning to `CC(C)[C@H](NC(=O)[C@H](CCCNC(=N)N)NC(=O)[C@H](CCCCN)NC(=O)[C@H](CCCCN)NC(=O)[C@H](C)NC(=O)[C@H](C)NC(=O)[C@H](CCCNC(=N)N)NC(=O)[C@H](CCC(=O)O)NC(=O)[C@H](CCCNC(=N)N)NC(=O)[C@@H]1CCCN1C(=O)[C@@H](N)[C@@H](C)O)C(N)=O` (H-TPRERAAKKRV-NH2), the inhibition constant Ki is > 100 nM.

On to `C[C@H](NC(=O)[C@H](C)NC(=O)[C@H](CCCNC(=N)N)NC(=O)[C@H](CCC(=O)O)NC(=O)[C@H](CCCNC(=N)N)NC(=O)[C@@H]1CCCN1C(=O)[C@@H](N)[C@@H](C)O)C(=O)N[C@@H](CCCCN)C(=O)N[C@@H](CCCCN)C(=O)N[C@@H](CCCNC(=N)N)C(=O)N(C)CC(N)=O` (H-TPRERAAKKR[Sar]-NH2), for which the inhibitory constant (Ki) was > 100 nM. For `C[C@H](NC(=O)[C@H](CCCNC(=N)N)NC(=O)[C@H](CCC(=O)O)NC(=O)[C@H](CCCNC(=N)N)NC(=O)[C@@H]1CCCN1C(=O)[C@@H](N)[C@@H](C)O)C(=O)N[C@@H](CCCNC(=N)N)C(=O)N[C@@H](CCCCN)C(=O)N[C@@H](CCCCN)C(=O)N[C@@H](CCCNC(=N)N)C(N)=O` (H-TPRERARKKR-NH2), the Ki is > 100 nM. As for `CC(C)[C@H](NC(=O)[C@H](CCCNC(=N)N)NC(=O)[C@H](CCCCN)NC(=O)[C@H](CCCCN)NC(=O)[C@H](CCCNC(=N)N)NC(=O)[C@H](C)NC(=O)[C@H](CCCNC(=N)N)NC(=O)[C@H](CCC(=O)O)NC(=O)[C@H](CCCNC(=N)N)NC(=O)[C@@H]1CCCN1C(=O)[C@@H](N)[C@@H](C)O)C(N)=O` (H-TPRERARKKRV-NH2), the figure is > 100 nM. In the case of `C[C@H](NC(=O)[C@H](CCCNC(=N)N)NC(=O)[C@H](CCC(=O)O)NC(=O)[C@H](CCCNC(=N)N)NC(=O)[C@@H]1CCCN1C(=O)[C@@H](N)[C@@H](C)O)C(=O)N[C@@H](CCCNC(=N)N)C(=O)N[C@@H](CCCCN)C(=O)N[C@@H](CCCCN)C(=O)N[C@@H](CCCNC(=N)N)C(=O)N(C)CC(N)=O` (H-TPRERARKKR[Sar]-NH2), the inhibition constant Ki is > 100 nM. Under `C[C@H](NC(=O)[C@H](C)NC(=O)[C@H](CCCNC(=N)N)NC(=O)[C@H](CCCNC(=N)N)NC(=O)[C@H](CCC(=O)O)NC(=O)[C@H](CCCNC(=N)N)NC(=O)[C@@H]1CCCN1C(=O)[C@@H](N)[C@@H](C)O)C(=O)N[C@@H](CCCCN)C(=O)N[C@@H](CCCNC(=N)N)C(N)=O` (H-TPRERRAAKR-NH2) stands > 100 nM; under `C[C@H](NC(=O)[C@H](C)NC(=O)[C@H](CCCNC(=N)N)NC(=O)[C@H](CCCNC(=N)N)NC(=O)[C@H](CCC(=O)O)NC(=O)[C@H](CCCNC(=N)N)NC(=O)[C@@H]1CCCN1C(=O)[C@@H](N)[C@@H](C)O)C(=O)N[C@@H](CCCCN)C(=O)N[C@@H](CCCNC(=N)N)C(=O)NCC(N)=O` (H-TPRERRAAKRG-NH2), > 100 nM; under `CC(C)[C@H](NC(=O)[C@H](CCCNC(=N)N)NC(=O)[C@H](CCCCN)NC(=O)[C@H](C)NC(=O)[C@H](C)NC(=O)[C@H](CCCNC(=N)N)NC(=O)[C@H](CCCNC(=N)N)NC(=O)[C@H](CCC(=O)O)NC(=O)[C@H](CCCNC(=N)N)NC(=O)[C@@H]1CCCN1C(=O)[C@@H](N)[C@@H](C)O)C(N)=O` (H-TPRERRAAKRV-NH2), > 100 nM. Under `C[C@H](NC(=O)[C@H](C)NC(=O)[C@H](CCCNC(=N)N)NC(=O)[C@H](CCCNC(=N)N)NC(=O)[C@H](CCC(=O)O)NC(=O)[C@H](CCCNC(=N)N)NC(=O)[C@@H]1CCCN1C(=O)[C@@H](N)[C@@H](C)O)C(=O)N[C@@H](CCCCN)C(=O)N[C@@H](CCCNC(=N)N)C(=O)N(C)CC(N)=O` (H-TPRERRAAKR[Sar]-NH2) stands > 100 nM; under `C[C@H](NC(=O)[C@H](CCCNC(=N)N)NC(=O)[C@H](CCCNC(=N)N)NC(=O)[C@H](CCC(=O)O)NC(=O)[C@H](CCCNC(=N)N)NC(=O)[C@@H]1CCCN1C(=O)[C@@H](N)[C@@H](C)O)C(=O)N[C@@H](CCCCN)C(=O)N[C@@H](CCCCN)C(=O)N[C@@H](CCCNC(=N)N)C(N)=O` (H-TPRERRAKKR-NH2), > 100 nM; under `CC(C)[C@H](NC(=O)[C@H](CCCNC(=N)N)NC(=O)[C@H](CCCCN)NC(=O)[C@H](CCCCN)NC(=O)[C@H](C)NC(=O)[C@H](CCCNC(=N)N)NC(=O)[C@H](CCCNC(=N)N)NC(=O)[C@H](CCC(=O)O)NC(=O)[C@H](CCCNC(=N)N)NC(=O)[C@@H]1CCCN1C(=O)[C@@H](N)[C@@H](C)O)C(N)=O` (H-TPRERRAKKRV-NH2), > 100 nM.

What is called Ki is a dissociation constant, usually derived from enzyme kinetics or from competition with a known ligand.
